Experimental data: patent US6127336A, “Antibacterial and antifungal peptide” (priority 1996, dated 2000)
No end group written: not given here.

Key:
Format in all cases: cell-based
Escherichia coli D22 = test: Antibacterial activity by microspectrophotometry; conditions: Escherichia coli D22, Gram -; 24 hours at 25° C., absorbance at 600 nm
Experimental: (§1) Pure each strain of bacteria used (E. coli; M. luteus), an isolated […] is suspended in 10 ml of DIFCO PB medium (Poor Broth, Luria Bertani medium free of yeast extract) and incubated at 30° C. overnight with slow stirring.
(§2) The bacteria to be tested are brought to an optical density at 600 nm of 0.001 in fresh culture medium. 10 μl of each fraction is deposited in microtitration plates in the presence of 100 μl of the bacterial suspension. After incubation for 24 hours at 25° C., the growth is evaluated by measuring the absorbance at 600 nm using a microtitration plate reader.

Escherichia coli D31 = test: Antibacterial activity by microspectrophotometry; conditions: Escherichia coli D31, Gram -; 24 hours at 25° C., absorbance at 600 nm
Experimental: as §1, §2

Micrococcus luteus = test: Antibacterial activity by microspectrophotometry
Experimental: as §1, §2

Aerococcus viridans = test: Antibacterial activity by microspectrophotometry; conditions: Gram +, 24 hours at 25° C., absorbance at 600 nm
Bacillus subtilis = test: Antibacterial activity by microspectrophotometry; conditions: Gram +, 24 hours at 25° C., absorbance at 600 nm
Staphylococcus aureus = test: Antibacterial activity by microspectrophotometry; conditions: Gram +, 24 hours at 25° C., absorbance at 600 nm
[1] = system: Clavibacter michiganensis; test: Antibacterial activity by microspectrophotometry
Experimental: as §1, §2
(§3) Using the same protocol but with phytopathogenic bacteria, the following results are obtained: […]

Salmonella typhimurium = test: Antibacterial activity by microspectrophotometry; conditions: Gram -, 24 hours at 25° C., absorbance at 600 nm
Pseudomonas maculicola = test: Antibacterial activity, phytopathogenic bacteria; conditions: same protocol
Experimental: as §1, §2, §3

Pseudomonas syr phaseoli = test: Antibacterial activity, phytopathogenic bacteria; conditions: same protocol
Experimental: as §1, §2, §3

[2] = system: Pseudomonas syringae pv syringae; test: Antibacterial activity, phytopathogenic bacteria; conditions: same protocol
Experimental: as §1, §2, §3

Pseudomonas syringae = test: Antibacterial activity, phytopathogenic bacteria; conditions: same protocol
Experimental: as §1, §2, §3

Pseudomonas valerianella = test: Antibacterial activity, phytopathogenic bacteria; conditions: same protocol
Experimental: as §1, §2, §3

[3] = system: Xanthomonas campestris pv campestris; test: Antibacterial activity, phytopathogenic bacteria; conditions: same protocol
Experimental: as §1, §2, §3

Xanthomonas phaseolica = test: Antibacterial activity, phytopathogenic bacteria; conditions: same protocol
Experimental: as §1, §2, §3

[4] = system: Xanthomonas vesicatoria 687.3; test: Antibacterial activity, phytopathogenic bacteria; conditions: same protocol
Experimental: as §1, §2, §3

[5] = system: Xanthomonas vesicatoria B229RI; test: Antibacterial activity, phytopathogenic bacteria; conditions: same protocol
Experimental: as §1, §2, §3

Alternaria dauci = test: Antifungal activity, phytopathogenic fungi
Experimental: as §1, §2
(§4) Using the same protocol but with phytopathogenic fungi, the following results are obtained: […]

Botrytis petuniae = test: Antifungal activity, phytopathogenic fungi
Experimental: as §1, §2, §4

Fusarium oxysporum L = test: Antifungal activity, phytopathogenic fungi
Experimental: as §1, §2, §4

[6] = system: Fusarium oxysporum meloni; test: Antifungal activity, phytopathogenic fungi
Experimental: as §1, §2, §4

Stemphyllium = test: Antifungal activity, phytopathogenic fungi
Experimental: as §1, §2, §4

Verticilium toreillis = test: Antifungal activity, phytopathogenic fungi
Experimental: as §1, §2, §4

bovine red blood cells = test: Hemolytic test; conditions: synthetic molecule
Experimental: (§5) All of the antibacterial and hemolytic tests are carried out with the synthetic molecule.

porcine red blood cells = test: Hemolytic test; conditions: synthetic molecule
Experimental: as §5

[7] = medium supplemented with 1 mM CaCl2 and 20 mM KCl

In the case of “androctonine (RSVCRQIKICRRRGGCYYLCTNRPY; disulfide (positions not given here)) [peptide from scorpion Androctonus australis hemolymph; 4 cysteine residues in two intramolecular disulfide bridges; tests done with the synthetic molecule]”, the MIC (Escherichia coli D22) is reported as over 30 µM, the MIC (Escherichia coli D31) is reported as 3 to 6 µM and the MIC (Micrococcus luteus; Micrococcus luteus, Gram +, 24 hours at 25° C., absorbance at 600 nm) is reported as 0.6 to 1.5 µM. The “antibacterial activity of synthetic molecule compared with native molecule” value (Micrococcus luteus; bacterium Micrococcus liteus, synthetic (FMOC, renatured) vs native) was “same antibacterial activity as the native molecule”, the MIC (Aerococcus viridans) was 0.3 to 0.6 µM and the MIC (Bacillus subtilis) was 1.5 to 3.0 µM. For the same substance, the MIC (Staphylococcus aureus) was 15 to 30 µM, the MIC ([1]; Clavibacter michi ganensis, Gram +, Table 1, 24 hours at 25° C., absorbance at 600 nm) was 6 to 15 µM and the MIC ([1]; Clavibacter michiganensis, Table 2, phytopathogenic bacteria, same protocol) was 6 to 15 µM. The MIC (Salmonella typhimurium) was 3 to 6 µM, the MIC (Pseudomonas maculicola) was 3 to 6 µM and the MIC (Pseudomonas syr phaseoli) was 2 to 4 µM. The MIC [2] was 15 to 22 µM, the MIC (Pseudomonas syringae) was 0.5 to 1 µM and the MIC (Pseudomonas valerianella) was 15 to 22 µM. The MIC [3] was 3 to 6 µM, the MIC (Xanthomonas phaseolica) was 1 to 2 µM and the MIC [4] was 1.5 to 3 µM. For the same substance, the MIC [5] was 1.5 to 3 µM, the MIC with salts (Alternaria dauci; [7]) was 16 to 32 µM and the MIC without salts (Alternaria dauci; without salts) was 4.1 to 8.2 µM. The MIC with salts (Botrytis petuniae; [7]) was over 32 µM, the MIC without salts (Botrytis petuniae; without salts) was 4 to 8 µM and the MIC with salts (Fusarium oxysporum L; [7]) was over 32 µM. For the same substance, the MIC without salts (Fusarium oxysporum L; without salts) was 2 to 4 µM, the MIC without salts [6] was 2 to 4 µM and the MIC with salts (Stemphyllium; [7]) was 16 to 32 µM. It also gave an MIC without salts (Stemphyllium; without salts) of 4 to 8 µM, an MIC with salts (Verticilium toreillis; [7]) of over 32 µM and an MIC without salts (Verticilium toreillis; without salts) of 2 to 4 µM. The “lytic effect on red blood cells” value (bovine red blood cells) was “no lytic effect” and the “lytic effect on red blood cells” value (porcine red blood cells) was “no lytic effect”.
